Like-named read-outs stand apart in the source and are kept apart here.
Legend:
[1] = tested on: Candida albicans ATCC 10231; experiment: Antimicrobial activity, agar well diffusion method; assay type: cell-based; conditions: 37 °C, 24 h
Protocol: (§1) Antimicrobial activity of compounds 1 to 6 and crude extracts 7a, 8a, 9a; 10 to 13 were measured using the agar well diffusion method. Bacterial and fungal pathogens such as S. aureus (ATCC 6538), E. coli (ATCC 11229) and C. albicans (ATCC 10231) were used as indicator strains for this analysis. These microorganisms were aseptically inoculated into appropriate liquid media and incubated at 37 °C. After 16 h, the cells were centrifuged at 6000 rpm for 10 min and then suspended in sterile water. The different cells (1 mL) were added to appropriate agar media (100 mL) prior to plating, and the wells were made using an agar well borer. To these wells, different concentrations of compounds 1 to 6 and the extracts 7a, 8a, 9a; 10 to 13 were added and subsequently incubated at 37 °C for 24 h. Zones of inhibition were estimated by measuring the diameter of the microbial growth inhibition zones. Values were averaged from three independent experiments.

[2] = tested on: Staphylococcus aureus ATCC 6538; experiment: Antimicrobial activity, agar well diffusion method; assay type: cell-based; conditions: 37 °C, 24 h
Protocol: as §1

[3] = tested on: Escherichia coli ATCC 11229; experiment: Antimicrobial activity, agar well diffusion method; assay type: cell-based; conditions: 37 °C, 24 h
Protocol: as §1

[4] = DPPH radical scavenging assay; conditions: 37 °C, 30 min, 515 nm; for IC50: pure compounds, read-out: DPPH Scavenging Effects, IC50 Values
Protocol: Radical scavenging assay was determined by a micro plate spectrophotometric method based on the reduction of DPPH according to the previous report. Various dilutions of pure compounds and crude extracts in the concentration range 0.0625 to 1 mM and 0.0625 to 1 mg∙mL^−1, respectively were made. Briefly DPPH solution (100 μL) and pure compound or crude extract in DMSO (100 μL) were added to each well of the micro plate and mixed. The mixture was shaken vigorously and left to stand at 37 °C for 30 min in dark. The absorbance of the solution was then measured at wavelength 515 nm using a micro plate spectrophotometer. Inhibition (%) of free radical (DPPH) was determined as [(Acontrol − Asample)/Acontrol] × 100, where: Acontrol is the absorbance of the control sample containing all reagents except the test sample and Asample is the absorbance of the test sample (pure compound or crude extract). Vitamin C was used as the positive control and tests were carried out in triplicate. The IC50 values were determined for all tested flavonoids, extract and control standard antioxidant.

[5] = target: T1, Protein tyrosine phosphatase 1B (PTP-1B) (Homo sapiens, UniProt P18031); experiment: Protein tyrosine phosphatase 1B (PTP-1B) inhibition assay with pNPP substrate; assay type: biochemical
T1 sequence (P18031 1-435): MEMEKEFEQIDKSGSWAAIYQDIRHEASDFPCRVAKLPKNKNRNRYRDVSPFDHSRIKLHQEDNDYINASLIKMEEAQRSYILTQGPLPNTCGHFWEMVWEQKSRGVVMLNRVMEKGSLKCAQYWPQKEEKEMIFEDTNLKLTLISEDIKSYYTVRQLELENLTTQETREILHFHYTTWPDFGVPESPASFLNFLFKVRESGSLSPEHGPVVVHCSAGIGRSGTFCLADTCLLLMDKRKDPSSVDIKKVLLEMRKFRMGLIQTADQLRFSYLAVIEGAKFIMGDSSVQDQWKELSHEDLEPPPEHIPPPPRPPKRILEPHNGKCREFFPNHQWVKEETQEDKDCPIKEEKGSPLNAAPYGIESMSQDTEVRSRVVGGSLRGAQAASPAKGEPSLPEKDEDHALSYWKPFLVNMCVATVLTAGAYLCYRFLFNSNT
Protocol: Compounds were pre-incubated with the enzyme at room temperature for 5 min. Then, 178 µL of buffer solution (20 mM HEPES, 150 mM NaCl, 1 mM EDTA) was added in 96-well plates. […] After that, 1 µL of test and positive control sample were added. Thereafter, 20 µL of the substrate pNPP (35 mM) was added and mixed for 10 min. The plate was incubated in the dark for 30 min and the reaction was terminated by adding 10 µL of 3 M NaOH. The absorbance was then determined at 405 nm wavelength. […] Inhibition (%) = [(OD405 − OD405 blank)/OD405 blank] × 100. IC50 was calculated from the percentage inhibition values.

[6] = pNPP substrate, absorbance at 405 nm

## C[C@@H]1[C@H](O)[C@@H](C)/C=C/C=C/C=C/C=C/C=C/C=C/C=C/[C@H](O[C@@H]2O[C@H](C)[C@@H](O)[C@H](N)[C@@H]2O)C[C@@H]2O[C@](O)(C[C@@H](O)C[C@@H](O)[C@H](O)CC[C@@H](O)C[C@@H](O)CC(=O)O[C@H]1C)C[C@H](O)[C@H]2C(=O)O [Amphotericin B, reference compound]
[1]
  Inhibition Zone Diameter CA: 15 mm

## CC1(C)S[C@@H]2[C@H](NC(=O)[C@H](N)c3ccccc3)C(=O)N2[C@H]1C(=O)O [Ampicillin, reference compound]
[2]
  Inhibition Zone Diameter SA: 19 mm
[3]
  Inhibition Zone Diameter EC: 14 mm

## O=c1c(O[C@@H]2O[C@H](CO)[C@H](O)[C@H](O)[C@H]2O)c(-c2ccc(O)c(O)c2)oc2cc(O)cc(O)c12 [Compound 6, Quercetin-3-O-β-D-galactopyranoside]
[4]
  IC50: 29.5 ± 1.5 µM
[5]; [6]
  IC50: > 50 µM
[2]
  Inhibition Zone Diameter SA: 11 mm
[3]
  Inhibition Zone Diameter EC: 6.5 mm
[1]
  Inhibition Zone Diameter CA: n.e.

## O=c1c(O[C@@H]2O[C@H](CO)[C@@H](O)[C@H](O)[C@H]2O)c(-c2ccc(O)c(O)c2)oc2cc(O)cc(O)c12 [Compound 5, Quercetin-3-O-β-D-glucopyranoside]
[4]
  IC50: 24.8 ± 1.3 µM
[5]; [6]
  IC50: > 50 µM
[2]
  Inhibition Zone Diameter SA: 11 mm
[3]
  Inhibition Zone Diameter EC: n.e.
[1]
  Inhibition Zone Diameter CA: n.e.

## O=c1c(O)c(-c2ccc(O)c(O)c2)oc2cc(O)cc(O)c12 [Compound 2, Quercetin]
[4]
  IC50: 24.9 ± 1.4 µM
[2]
  Inhibition Zone Diameter SA: 12 mm
[3]
  Inhibition Zone Diameter EC: n.e.
[1]
  Inhibition Zone Diameter CA: 6.5 mm

## O=c1c(O[C@@H]2O[C@@H](CO)[C@H](O)[C@H]2O)c(-c2ccc(O)c(O)c2)oc2cc(O)cc(O)c12 [Compound 3, Quercetin-3-O-α-L-arabinofuranoside]
[4]
  IC50: 38.3 ± 2 µM
[5]; [6]
  IC50: > 50 µM
[2]
  Inhibition Zone Diameter SA: n.e.
[3]
  Inhibition Zone Diameter EC: 5.5 mm
[1]
  Inhibition Zone Diameter CA: n.e.

## O=c1c(-c2c(O)cc(O)c3c(=O)cc(-c4ccc(O)cc4)oc23)c(-c2ccc(O)cc2)oc2cc(O)cc(O)c12 [Compound 1, 3-8′′-Bisapigenin]
[4]
  IC50: > 500 µM
[5]; [6]
  IC50: > 50 µM
[2]
  Inhibition Zone Diameter SA: 5.5 mm
[3]
  Inhibition Zone Diameter EC: n.e.
[1]
  Inhibition Zone Diameter CA: n.e.

## C[C@@H]1O[C@@H](Oc2c(-c3ccc(O)c(O)c3)oc3cc(O)cc(O)c3c2=O)[C@H](O)[C@H](O)[C@H]1O [Compound 4, Quercetin-3-O-α-L-rhamnoside]
[4]
  IC50: 32.1 ± 1.6 µM
[5]
  IC50: > 50 µM
[2]
  Inhibition Zone Diameter SA: n.e.
[3]
  Inhibition Zone Diameter EC: 8 mm
[1]
  Inhibition Zone Diameter CA: 5.5 mm

## O=C1O[C@H]([C@@H](O)CO)C(O)=C1O [Vitamin C, reference compound]
[4]; crude extracts
  DPPH Scavenging Effects; IC50 Values: 5.34 ± 0.4 µg/mL
[4]
  IC50: 30.3 ± 2.4 µM
